In article doi:10.1101/2022.05.23.493001v4 (biorxiv, 2022) one finds EC50 data, which are given here for 1 compound.

The subject of the assay is STING in THP-1 cells (endogenous). Description: cells. As to conditions: Homo sapiens, THP-1, 6 h, read-out: EC50 IFN-β THP-1.

What is called EC50 is the concentration that produces a half-maximal response. Take `CSc1c(Cl)ccc2c(=O)c3ccc(C(C)(C)C)cc3n(CC(=O)O)c12` [SNX281]: the EC50 turned out to be 6.6 µM.
